Assay results reported in the METLIN SMRT retention time set (Domingo-Almenara et al. 2019).

Assay: gradient 5% acetonitrile 3 min, to 50% in 2 min, to 85% in 15 min, held 3 min, 100 µL/min
Conditions: column: Zorbax Extend-C18 2.1 x 50 mm; eluents: water / acetonitrile, 0.1% formic acid
How it was run: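 Mixtures of ~100 pure standards were chromatographed on a Zorbax Extend-C18 column (2.1 × 50 mm, 1.8 μm) at 100 μL/min using water and acetonitrile, each with 0.1% formic acid. Detection used a quadrupole time-of-flight mass spectrometer in positive and negative ionization mode, and data collection spanned 3 months. Retention time was obtained from adduct peaks picked computationally and each checked manually.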

Compared with CCOC(=O)c1[nH]c(C)c(CN(Cc2ccco2)C(=O)Cc2ccc(F)cc2)c1C, O=C(NCCc1ccc(F)cc1)C1CC(=O)N(CCc2c[nH]c3ccc(Cl)cc23)C1 (stereo not drawn) is lower in RP-LC retention time: 1020 s for the first, 830 s for the second.

Going from Cc1ccc(-c2cc3c(=O)n(Cc4noc(CN5CCN(C(C)C)CC5)n4)ccn3n2)cc1 to COc1ccc(-n2ncc3c(=O)n(Cc4nc(-c5ccccc5)no4)cnc32)cc1, the RP-LC retention time rises from 665 s to 961 s.

Going from O=C(Cc1c(F)cccc1Cl)NC1CCN(c2cc(-c3cccs3)[nH]n2)C1 (stereo not drawn) to CCCC(NC(=O)C1CCCN(c2ccc(=O)n(-c3ccc(C)c(Cl)c3)n2)C1)c1cccs1 (stereo not drawn), the RP-LC retention time rises from 747 s to 1040 s.

Compared with Cc1cccc(NS(=O)(=O)c2cc3n(c2)CCN(CC(C)C)C3=O)c1C, CC(C)c1cccc2sc(NC(=O)C3CCCN(S(C)(=O)=O)C3)nc12 (stereo not drawn) is higher in RP-LC retention time: 852 s for the first, 965 s for the second.

Compared with O=C(CN1CC=C(c2cnn(-c3ccccc3)c2)CC1)N1CCN(c2ccccn2)CC1, O=C(c1ccc2ccnc(N3CCN(c4ccccc4)CC3)c2c1)N1CCN(c2ccccn2)CC1 is higher in RP-LC retention time: 567 s for the first, 616 s for the second.

First: O=C(Cn1c(=O)c2cccn2c2ccc(F)cc21)NCCc1cccs1
Second: Cc1cc(-c2nnc(-c3ccccc3)o2)c(C)n1CC(=O)Nc1cc(F)ccc1F
The RP-LC retention time of the first is lower: 822 s for the first, 994 s for the second.

First: O=C(CN1CCN(Cc2cccc(Cl)c2)C1=O)NCc1ccc(N2CCOCC2)cc1
Second: O=C(CCC1CCN(S(=O)(=O)c2ccccc2)CC1)NCc1ccc(F)cc1
The RP-LC retention time of the first is lower: 736 s for the first, 882 s for the second.

First: CC1CC(C)CN(c2nccn3c(=O)n(CC(=O)Nc4ccc(F)cc4F)nc23)C1 (stereo not drawn)
Second: COc1cc(OC)c(NC(=O)Cn2nc3n(c2=O)CCCCC3)cc1Cl
The RP-LC retention time of the first is higher: 902 s for the first, 722 s for the second.

Compared with Cc1nc(-c2csc(S(=O)(=O)N3CCCC(C(=O)N4CCCCCC4)C3)c2)no1 (stereo not drawn), Cc1nc(-c2csc(S(=O)(=O)N3CCC(C(=O)NCc4ccc(F)cc4)CC3)c2)no1 is higher in RP-LC retention time: 902 s for the first, 981 s for the second.

Going from CC(C)NC(=O)N1CCCC(c2cccc(C(=O)NCc3ccc(OC(C)C)cc3)c2)C1 (stereo not drawn) to O=C(c1ccc(F)cc1)N1CCCC(c2nnc(-c3ccccc3)o2)C1 (stereo not drawn), the RP-LC retention time falls from 939 s to 819 s.

First: Cc1c(C(=O)N2CCN(C)CC2)sc2ncnc(N3CCN(c4ccccn4)CC3)c12
Second: Cc1oc2ncn(CCC(=O)N3CCN(c4ccccn4)CC3)c(=O)c2c1C
The RP-LC retention time of the first is lower: 523 s for the first, 573 s for the second.

Compared with CSc1ccc(-c2nc3nc(C)cc(C)n3c2Nc2ccc(C)cc2)cc1, Cc1ccc(-c2nc3nc(C)cc(C)n3c2Nc2ccc3c(c2)OCCO3)cc1 is lower in RP-LC retention time: 810 s for the first, 704 s for the second.

Compared with O=c1c2nc(-c3ccc(F)cc3F)cn2ccn1-c1ccc(Cl)cc1, O=C(Nc1cccc(Cl)c1)c1c(O)c2cccnc2n(-c2ccccc2)c1=O is higher in RP-LC retention time: 921 s for the first, 1340 s for the second.

Going from O=C(Nc1ccc2c(c1)OCCO2)C1CCCN(c2ncc(-c3cccc(F)c3)cn2)C1 (stereo not drawn) to CC1CCN(c2nc(=O)n(CC(=O)Nc3ccc4c(c3)OCCO4)c3ccccc23)CC1, the RP-LC retention time falls from 1040 s to 812 s.

Going from CCN1CCCn2nc(C3CCN(C(=O)c4n[nH]c5ccccc45)CC3)cc2C1=O to CCN1CCN(C2CCN(C(=O)c3cccc(Br)c3)CC2)C1=O, the RP-LC retention time rises from 629 s to 720 s.

Compared with CCCn1cc(CCNS(=O)(=O)c2cccc(C(F)(F)F)c2)c2cccnc21, O=C(Nc1cc(-c2ccccn2)no1)c1cccc(C(F)(F)F)c1 is higher in RP-LC retention time: 904 s for the first, 916 s for the second.

Compared with Cc1ccc(C(CC(=O)N2CCN(c3ccccn3)CC2)n2cccc2)cc1 (stereo not drawn), O=C(Nc1ccccc1)N1CCN(c2nc(-c3ccccc3)ns2)CC1 is higher in RP-LC retention time: 995 s for the first, 1020 s for the second.

Going from CCCNC(=O)C1CCCN(c2nc3ncn(CC(=O)NCCC4=CCCCC4)c(=O)c3s2)C1 (stereo not drawn) to O=C(NC1CC1)C1CCCN(c2ncnc3c2nc2n3CCCCC2)C1 (stereo not drawn), the RP-LC retention time falls from 732 s to 622 s.

First: CC(C)N1C(=O)c2cccnc2Sc2cc(NC(=O)C3CCC3)ccc21
Second: CCOc1ccc(NC(=O)C2(C)Oc3cccnc3N(C(C)C)C2=O)cc1 (stereo not drawn)
The RP-LC retention time of the first is lower: 798 s for the first, 1000 s for the second.

Compared with O=C(Nc1ccccc1Cl)N1CCc2nc[nH]c2C1, Cn1nc(C(=O)N2CCCC2)c2c1CCN(C(=O)Nc1cccc(Br)c1)C2 is higher in RP-LC retention time: 570 s for the first, 804 s for the second.

Compared with Cc1ccc(NC(=O)C2CCN(C(=O)C3Sc4ccccc4NC3=O)CC2)c(C)c1 (stereo not drawn), COc1ccc(NC(=O)C2CCN(S(=O)(=O)c3c(C)nn(-c4ccccc4)c3C)CC2)c(OC)c1 is higher in RP-LC retention time: 762 s for the first, 940 s for the second.

Going from CNC(=O)c1c(NC(=O)c2ccc(C)cc2)sc2c1CCC2 to Cc1ccc(NC(=O)Cn2nc(C)cc2C(=O)Nc2ccc3c(c2)OCCO3)cc1, the RP-LC retention time falls from 1070 s to 834 s.

Compared with CCN(CC)CCNC(=O)C1(O)c2cc(Br)ccc2NC(=O)N1c1cccc(OC)c1 (stereo not drawn), COC(=O)c1c(NCc2cccc(OC)c2)c2cc(Cl)ccc2[nH]c1=O is higher in RP-LC retention time: 590 s for the first, 816 s for the second.

First: Cc1oc(-c2[nH]ncc2C(=O)N(C)C)cc1S(=O)(=O)Nc1cccc(C(F)(F)F)c1
Second: Cc1ccc(S(=O)(=O)N(C)C)cc1-c1nnc(-c2ccc(Cl)cc2)o1
The RP-LC retention time of the first is lower: 763 s for the first, 1080 s for the second.

Compared with O=C(N[C@@H]1CN(c2ncccn2)C[C@H]1CO)c1ccco1, O=C(Nc1cccc(-c2cn3c(n2)SCC3)c1)c1cc(-c2ccco2)on1 is higher in RP-LC retention time: 566 s for the first, 667 s for the second.

First: O=C(NCc1ccccn1)C1CCN(C(=O)c2ncn3c2COC(c2ccc(F)cc2)C3)CC1 (stereo not drawn)
Second: O=C(NCc1ccccn1)C1c2ccccc2C(=O)N(C2CCCC2)C1c1cccs1 (stereo not drawn)
The RP-LC retention time of the first is lower: 622 s for the first, 709 s for the second.

Going from Cc1c2c(nn1-c1ccc(SCc3ccc(F)cc3)nn1)CCC2 to CC(C)c1nc2nccc(-c3ccc(F)cc3)n2n1, the RP-LC retention time falls from 1280 s to 831 s.

Compared with CCCN(CC1CCOC1)C(=O)NCc1ccc(F)cc1 (stereo not drawn), CCCc1ccc(S(=O)(=O)N2CCCC2c2nc(-c3cccc(F)c3)no2)cc1 (stereo not drawn) is higher in RP-LC retention time: 758 s for the first, 1270 s for the second.

First: Cc1nc(S(=O)(=O)N2CCC(C(=O)N3CCN(c4ccc(Cl)cc4)CC3)CC2)cn1C
Second: O=C(C1CC(=O)N(c2ccccc2)C1)N1CCN(c2ccc(-c3noc(C4CCC4)n3)cc2)CC1 (stereo not drawn)
The RP-LC retention time of the first is lower: 859 s for the first, 970 s for the second.

Compared with O=C1CCCN1Cc1nc(-c2ccc(F)c(Cl)c2)no1, CCCn1c(=O)c(C)nc2cc(-c3noc(-c4ccc(F)c(F)c4)n3)ccc21 is higher in RP-LC retention time: 853 s for the first, 1230 s for the second.

Going from CCCN(C)S(=O)(=O)c1c(C)nn(-c2ccc(-c3ccccc3)nn2)c1C to CCCCN(C)C(=O)Cn1c(=O)c(S(=O)(=O)c2ccccc2)cc2cc(C)ccc21, the RP-LC retention time falls from 1080 s to 953 s.

Going from CN1C(=O)c2cc(C(=O)NCc3ccccc3Cl)nn2CC1(C)C(=O)NCc1ccccc1 (stereo not drawn) to O=C(Cn1c(C(F)(F)F)nc2cc3c(cc21)OCCO3)NCc1ccccc1, the RP-LC retention time rises from 789 s to 829 s.

Compared with Cc1sc(NC(=O)CCCC(=O)O)nc1-c1ccccc1, C=C(C)CNc1nc(-c2ccccc2)c(-c2ccccc2)s1 is higher in RP-LC retention time: 752 s for the first, 1040 s for the second.

Going from CC(C)n1c(N2CCN(C(=O)c3cccs3)CC2)cc(=O)n(C(C)C)c1=O to CN1CCN(C(=O)O[C@H]2c3nccnc3C(=O)N2c2ccc(Cl)cn2)CC1, the RP-LC retention time falls from 812 s to 660 s.

First: Cc1sc(-c2nnc(C3CC3)o2)cc1NC(=O)C1CCC1
Second: CCc1nc(NC(=O)Cn2nc3c(cc2=O)CCCC3)sc1C
The RP-LC retention time of the first is higher: 856 s for the first, 764 s for the second.

Compared with Cc1ccccc1Nc1c(-c2ccccc2O)nc2ccc(Br)cn12, COc1ccc(Cl)cc1S(=O)(=O)NCc1cccnc1-c1cccc(C)c1 is lower in RP-LC retention time: 1050 s for the first, 771 s for the second.

Compared with Cc1cc(N2CCN(S(=O)(=O)c3ccc(-c4ccccc4)cc3)CC2)nc(NC2CCCCC2)n1, c1ccc(-c2nc(-c3ccnc(N4CCOCC4)c3)no2)cc1 is lower in RP-LC retention time: 970 s for the first, 942 s for the second.

Going from O=C(NC1CCCCCC1)C1CCCN(C(=O)c2ccc(Cl)cc2)C1 (stereo not drawn) to CC(C)N1C(=O)C2(CCCCC2)C1C(=O)N1CCCCC1 (stereo not drawn), the RP-LC retention time falls from 904 s to 722 s.

First: COc1ccc(C(=O)N(C)CC2(C)CCOCC2)cc1OC
Second: CCCOC(=O)c1cnc2nc(C)ccc2c1NCc1ccc(OC)c(OC)c1
The RP-LC retention time of the first is lower: 677 s for the first, 701 s for the second.

Compared with COCCOCC(=O)N1CC(Oc2ccc(-c3nc(C)no3)cc2)C1, CCOc1cccc2c(C)nc(NC3=NCN(CCOC)CN3)nc12 is lower in RP-LC retention time: 679 s for the first, 643 s for the second.

Going from O=C(c1ccncc1)N1CCCn2nc(-c3cccs3)cc2C1 to c1cc(-c2nc(CC3CCCNC3)no2)ccn1 (stereo not drawn), the RP-LC retention time falls from 642 s to 552 s.

Compared with NS(=O)(=O)c1ccc(CCNCc2ccc(-c3cccc(Cl)c3)o2)cc1, COC(=O)c1ccc(NC(=O)C2CC(=O)N(c3ccc4c(c3)CCN4C(C)=O)C2)cc1 (stereo not drawn) is higher in RP-LC retention time: 675 s for the first, 700 s for the second.

First: O=C1CC(NC(=O)Nc2ccccc2C(F)(F)F)CN1 (stereo not drawn)
Second: CC(C)C[C@H](NC(=O)Cn1cnc2ccccc2c1=O)C(=O)O
The RP-LC retention time of the first is lower: 595 s for the first, 649 s for the second.

Going from COc1cc(NC(=O)C2Nc3cc(F)ccc3S(=O)(=O)N2)cc(OC)c1OC (stereo not drawn) to O=C1CCCC(=O)N1CCS(=O)(=O)Nc1ccc(Cl)c(N2CCCS2(=O)=O)c1, the RP-LC retention time falls from 718 s to 657 s.
